Several values for one entry are separate records, joined by “and”; a condition that tells them apart may be missing. Identical values can stand only once.
How the values were obtained:
[1] = target: T1, rabbit liver CE (Oryctolagus cuniculus, UniProt P12337); assay: Esterase assay (o-NPA), COS-7 cells expressing rabbit CE; assay type: biochemical; parameters: To amplify a full length rabbit CE cDNA, oligonucleotide primers RabNTERM; expressed in transfected cells; host or cells: COS-7 (sonicates of transiently transfected cells); conditions: plasmid pCIRAB, enzyme rabbit
T1 sequence (P12337 19-565): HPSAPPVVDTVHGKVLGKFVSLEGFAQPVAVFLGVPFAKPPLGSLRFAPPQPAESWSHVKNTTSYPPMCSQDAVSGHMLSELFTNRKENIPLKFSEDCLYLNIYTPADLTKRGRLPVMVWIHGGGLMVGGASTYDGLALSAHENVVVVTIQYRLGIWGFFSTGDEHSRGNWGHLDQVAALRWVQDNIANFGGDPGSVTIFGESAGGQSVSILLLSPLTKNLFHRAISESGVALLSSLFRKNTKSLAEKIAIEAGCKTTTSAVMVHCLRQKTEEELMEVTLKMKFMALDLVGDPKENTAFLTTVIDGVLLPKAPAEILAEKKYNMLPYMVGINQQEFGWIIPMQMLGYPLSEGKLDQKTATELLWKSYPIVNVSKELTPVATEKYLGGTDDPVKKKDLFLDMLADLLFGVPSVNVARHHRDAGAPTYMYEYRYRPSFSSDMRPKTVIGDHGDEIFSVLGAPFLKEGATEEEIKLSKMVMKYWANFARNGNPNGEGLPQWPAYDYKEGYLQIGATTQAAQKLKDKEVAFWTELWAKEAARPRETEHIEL
Procedure: (§1) Esterase activity was determined in whole tissue sonicates using a spectrophotometric assay with o-nitrophenol acetate as a substrate (Potter et al. 1998 Cancer Res. 52:2646-2651; Beaufay et al. 1974 J. Cell Biol. 61:188-200). Protein concentrations were calculated using BioRad protein assay reagent (Hercules, Calif.) with bovine serum albumin as a standard. Enzyme activities were calculated as μmoles of o-nitrophenol produced per minute per mg of total protein.

[2] = system: COS-7 cells (pCIneo, no enzyme); assay: Esterase assay (o-NPA), COS-7 cells transfected with pCIneo; assay type: biochemical, monkey; conditions: plasmid pCIneo
Procedure: as §1

[3] = system: CE activity in human biopsy whole tissue sonicates; assay: Esterase assay (o-NPA conversion) with human biopsy extracts; assay type: biochemical
Procedure: Using human intestinal mucosal biopsy tissue, the conversion of o-NPA to nitrophenol by whole tissue sonicates was monitored. CE activity was identified in both small intestine and colon samples, with activity levels in small intestine being much less than the levels seen with human liver.
Biopsies of human intestine were obtained from the Cooperative Human Tissue Network (Birmingham, Ala.). The samples were ground under liquid nitrogen and the resulting powder sonicated in 50 mM Hepes, pH 7.4, on ice.
as §1

[4] = target: T2, human liver CE (hCE1) (Homo sapiens, UniProt P23141); assay: Esterase assay (o-NPA), COS-7 cells expressing hCE1; assay type: biochemical; conditions: plasmid pCIHUMCAR, enzyme hCE1
T2 construct: expressed in transfected cells; host or cells: COS-7 (sonicates of transiently transfected cells)
Procedure: as §1

[5] = target: T3, human intestinal CE (hiCE) (Homo sapiens, UniProt O00748); assay: Esterase assay (o-NPA), COS-7 cells expressing hiCE; assay type: biochemical; conditions: plasmid pCIhiCE, media
T3 construct: expressed in transfected cells; host or cells: COS-7 (sonicates of transiently transfected cells)
Procedure: as §1

T2 sequence (P23141 18-567): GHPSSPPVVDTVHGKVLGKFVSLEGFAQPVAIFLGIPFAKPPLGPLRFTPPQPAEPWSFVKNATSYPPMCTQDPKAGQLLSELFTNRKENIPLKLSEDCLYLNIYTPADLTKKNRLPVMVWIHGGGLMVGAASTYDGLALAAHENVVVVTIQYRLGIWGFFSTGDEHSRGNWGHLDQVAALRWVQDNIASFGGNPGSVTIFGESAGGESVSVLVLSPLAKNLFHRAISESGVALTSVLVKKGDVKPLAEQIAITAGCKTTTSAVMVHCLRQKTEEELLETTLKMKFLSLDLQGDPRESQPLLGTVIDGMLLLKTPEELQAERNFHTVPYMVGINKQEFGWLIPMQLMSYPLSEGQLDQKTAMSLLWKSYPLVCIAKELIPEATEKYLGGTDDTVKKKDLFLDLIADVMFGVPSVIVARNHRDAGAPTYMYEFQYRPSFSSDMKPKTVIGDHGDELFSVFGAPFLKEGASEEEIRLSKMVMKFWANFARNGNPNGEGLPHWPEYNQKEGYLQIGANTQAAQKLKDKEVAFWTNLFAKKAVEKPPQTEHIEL
T3 sequence (O00748 27-559): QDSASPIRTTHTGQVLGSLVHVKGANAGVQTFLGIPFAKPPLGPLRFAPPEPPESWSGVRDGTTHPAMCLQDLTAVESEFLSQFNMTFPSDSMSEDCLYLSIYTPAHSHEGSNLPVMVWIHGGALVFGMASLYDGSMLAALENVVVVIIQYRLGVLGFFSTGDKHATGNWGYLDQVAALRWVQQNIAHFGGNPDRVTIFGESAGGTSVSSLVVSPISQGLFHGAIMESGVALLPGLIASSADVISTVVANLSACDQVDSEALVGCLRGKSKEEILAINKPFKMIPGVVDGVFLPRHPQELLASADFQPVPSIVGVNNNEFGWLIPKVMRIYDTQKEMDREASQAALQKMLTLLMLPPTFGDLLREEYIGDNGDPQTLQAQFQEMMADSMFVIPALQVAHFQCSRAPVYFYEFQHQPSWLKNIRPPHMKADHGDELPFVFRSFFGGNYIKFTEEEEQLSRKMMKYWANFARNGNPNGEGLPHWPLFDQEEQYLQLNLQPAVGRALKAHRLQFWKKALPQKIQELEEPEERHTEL

CC(=O)Oc1ccccc1[N+](=O)[O-] [o-NPA, o-nitrophenyl acetate]
o-NPA Conversion [1]: 2755.5 ± 271.2 µmol/min/mg | o-NPA Conversion ([2]; enzyme none): 6.7 ± 0.15 µmol/min/mg | o-NPA Conversion ([2]; media): 13.3 ± 2.7 µmol/min/mg | o-NPA Conversion ([3]; human colon biopsy extract): 46.5 ± 1.2 µmol/min/mg and 86.3 ± 5.2 µmol/min/mg and 75.9 ± 2.6 µmol/min/mg | o-NPA Conversion ([3]; human small intestine biopsy extract): 113.0 ± 9.2 µmol/min/mg and 67.6 ± 4.1 µmol/min/mg and 61.0 ± 2.0 µmol/min/mg | o-NPA Conversion [4]: 4780.3 ± 279.8 µmol/min/mg | o-NPA Conversion [5]: 30.9 ± 2.8 µmol/min/mg

Source: US7452717B2, “Compositions and methods for sensitizing and inhibiting growth of human tumor cells” (St. Jude Children's Research Hospital, priority 1998, dated 2008)
